Test results as given in patent US20260200892A1, “CANNABINOID RECEPTOR 2 MODULATORS” (Hoffmann-La Roche Inc., priority 2023, published 2026).

Key:
hCB1R = hCB1R (Homo sapiens, UniProt P21554); experiment: hCB1R binding (Kd hCB1R, Table 1)
[1] = target: T1, CB2 receptor (hCB2R), CHO cell line stably overexpressing CB2 receptor (Homo sapiens, UniProt P34972); experiment: cAMP hCB2R functional assay (HTRF); format: cell-based; conditions: CHO cells overexpressing CB2 receptor, forskolin; for EC50: means ± SEM of 2-3 independent experiments; for Functionality: normalized to Emax of CP55940 (100%)
T1 construct: expressed in transfected cells; host or cells: CHO cell line stably overexpressing CB2 receptor (G418 selection)
T1 sequence (P34972 whole entry): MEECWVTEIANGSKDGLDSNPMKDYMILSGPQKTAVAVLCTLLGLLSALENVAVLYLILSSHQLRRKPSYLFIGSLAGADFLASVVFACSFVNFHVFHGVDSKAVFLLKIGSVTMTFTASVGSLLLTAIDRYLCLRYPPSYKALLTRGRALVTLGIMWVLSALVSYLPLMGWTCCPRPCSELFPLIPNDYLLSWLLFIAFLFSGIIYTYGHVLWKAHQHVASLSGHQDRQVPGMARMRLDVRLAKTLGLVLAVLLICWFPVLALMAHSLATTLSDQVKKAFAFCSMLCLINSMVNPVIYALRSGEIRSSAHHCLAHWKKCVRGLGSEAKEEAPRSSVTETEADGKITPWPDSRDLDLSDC
Experimental: cAMP hCB2R Functional Assay
The Homogeneous Time Resolved Fluorescence (HTRF) Assays
The homogeneous time-resolved fluorescence (HTRF) cAMP assay was conducted according to the manufacturer's protocol for the cAMP-Gs Dynamic kit (Cisbio). Briefly, the CHO cell line stably overexpressing CB2 receptor were maintained in Ham's F12 supplemented with 10% FBS, 100 U/ml penicillin and 100 μg/ml streptomycin (Gibco-ThermoFisher) and 400 μg/ml G418 (ThermoFisher). For CB2 compounds test, harvest the cells with Cell Dissociation Buffer and re-suspend the cells in F-12 K at 0.4*10^6 cells/mL, and dispense cells into 384-well low volume plates at 2000 cells/5 μL per well. The cells were stimulated with compounds diluted in Stimulation Buffer (2.5 μL/well) for 15 min at room temperature. And then followed by the addition of 2.5 μL 25 μM forsklin. After 15 mins incubation, reactions were stopped by 5 μL/well cAMP-d2 conjugate working solution followed by 5 μL/well of anti-cAMP cryptate working solution. After incubation for 1 h at room temperature, the plates were read in a PerkinElmer Envision reader for time-resolved fluorescence resonance energy transfer detection at 620 nm and 665 nm.
Quantification and Statistical Analysis
All HTRF ratio data sets of test compounds were normalized to the Emax of CP55940 (100%) and obtained the means±standard error of the mean (SEM) of 2-3 independent experiments performed in technical replicates.

[2] = target: T2, human CB2 receptor (hCB2R) (Homo sapiens, UniProt P34972); experiment: TR-FRET hCB2R binding assay; conditions: TR-FRET, membranes of SNAP-tagged human CB2R HEK293-TR cells, 100 μM GppNHp, nonspecific binding with SR144528; read-out: Kd hCB2R
T2 construct: expressed in transfected cells; membranes
T2 sequence (P34972 whole entry): as above

hCB1R, sequence (P21554 whole entry): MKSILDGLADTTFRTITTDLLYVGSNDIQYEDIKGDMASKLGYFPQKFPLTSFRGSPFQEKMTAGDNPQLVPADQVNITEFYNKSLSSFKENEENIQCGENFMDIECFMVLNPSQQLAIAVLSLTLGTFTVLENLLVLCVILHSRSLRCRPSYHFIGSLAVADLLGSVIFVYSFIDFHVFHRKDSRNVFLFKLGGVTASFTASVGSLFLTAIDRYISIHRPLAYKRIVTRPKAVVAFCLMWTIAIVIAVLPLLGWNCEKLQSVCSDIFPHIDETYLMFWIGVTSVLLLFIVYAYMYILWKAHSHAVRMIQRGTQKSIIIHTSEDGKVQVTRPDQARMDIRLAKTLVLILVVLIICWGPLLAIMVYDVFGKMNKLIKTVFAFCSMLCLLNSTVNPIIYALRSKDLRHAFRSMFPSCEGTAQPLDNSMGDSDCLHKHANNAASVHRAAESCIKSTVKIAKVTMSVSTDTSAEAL

SMILES | Kd (hCB1R) | EC50 [1] | Functionality [1] | Kd [2]
CCCCCC(CCC)C(C)(C)c1cc(OC)c([C@H]2C=C(CO)[C@H]3C[C@@H]2C3(C)C)c(OC)c1 (stereo partly drawn) [Example 5, ((1S,4S,5S)-4-(2,6-dimethoxy-4-(2-methyl-3-propyloctan-2-yl)phenyl)-6,6-dimethylbicyclo[3.1.1]hept-2-en-2-yl)methanol] | 6740 nM | 112 nM | inverse agonist | 74 nM
CCCCC[C@@H](C(F)(F)F)C(C)(C)c1cc(OC)c([C@H]2C=C(CO)[C@H]3C[C@@H]2C3(C)C)c(OC)c1 [Example 1, ((1S,4S,5S)-4-(2,6-dimethoxy-4-((R)-2-methyl-3-(trifluoromethyl)octan-2-yl)phenyl)-6,6-dimethylbicyclo[3.1.1]hept-2-en-2-yl)methanol] | 11800 nM | – | antagonist | 606 nM
CCCCC[C@@H](c1ccc(F)cc1)C(C)(C)c1cc(OC)c([C@H]2C=C(CO)[C@H]3C[C@@H]2C3(C)C)c(OC)c1 [Example 10, ((1S,4S,5S)-4-(4-((S)-3-(4-fluorophenyl)-2-methyloctan-2-yl)-2,6-dimethoxyphenyl)-6,6-dimethylbicyclo[3.1.1]hept-2-en-2-yl)methanol] | 1790 nM | – | antagonist | 301 nM
CCCCC[C@H](c1cccc(F)c1)C(C)(C)c1cc(OC)c([C@H]2C=C(CO)[C@H]3C[C@@H]2C3(C)C)c(OC)c1 [Example 11, ((1S,4S,5S)-4-(4-((R)-3-(3-fluorophenyl)-2-methyloctan-2-yl)-2,6-dimethoxyphenyl)-6,6-dimethylbicyclo[3.1.1]hept-2-en-2-yl)methanol] | 2690 nM | 2340 nM | inverse agonist | 355 nM
COc1cc(C(C)(C)[C@H](CCCCCN=[N+]=[N-])c2ccccc2)cc(OC)c1[C@H]1C=C(CNC(=O)CCCCCCNc2ccc([N+](=O)[O-])c3nonc23)[C@H]2C[C@@H]1C2(C)C [Example 24, N-(((1S,4S,5S)-4-(4-((R)-8-azido-2-methyl-3-phenyloctan-2-yl)-2,6-dimethoxyphenyl)-6,6-dimethylbicyclo[3.1.1]hept-2-en-2-yl)methyl)-7-((7-nitrobenzo [c][1,2,5]oxadiazol-4-yl)amino)heptanamide] | 840 nM | 1230 nM | inverse agonist | 12.3 nM
CCCCC[C@H](c1ccc(F)cc1)C(C)(C)c1cc(OC)c([C@H]2C=C(CO)[C@H]3C[C@@H]2C3(C)C)c(OC)c1 [Example 9, ((1S,4S,5S)-4-(4-((R)-3-(4-fluorophenyl)-2-methyloctan-2-yl)-2,6-dimethoxyphenyl)-6,6-dimethylbicyclo[3.1.1]hept-2-en-2-yl)methanol] | 1480 nM | – | antagonist | 1150 nM
CCCCCC(C(C)C)C(C)(C)c1cc(OC)c([C@H]2C=C(CO)[C@H]3C[C@@H]2C3(C)C)c(OC)c1 (stereo partly drawn) [Example 6, ((1S,4S,5S)-4-(4-(3-isopropyl-2-methyloctan-2-yl)-2,6-dimethoxyphenyl)-6,6-dimethylbicyclo[3.1.1]hept-2-en-2-yl)methanol] | 7040 nM | – | antagonist | 6.1 nM
